Laboratory results published in patent publication US8968663B2, “Monitoring membrane-bound proteins” (University of Utah Research Foundation, priority 2011, dated 2015).

Columns and labels:
[1] = test system: ShakerB-IR K^+ ion channel; test: Two-electrode voltage clamp of ShakerB-IR expressing Xenopus oocytes with Cu^2+ applied as ion channel blocker; type: cell-based; details: ~120 μM Cu^2+ pipetted above the cell, FIG. 10
Method: Complementary deoxyribonucleic acid (cDNA) for the Shaker ion-channel variant ShakerB-IR (inactivation removed) was transformed in E. coli and linearized using the restriction enzyme, Kpn-1. cRNA was transcribed from linearized DNA, and 32 nL/cell of the transcribed RNA was injected into Xenopus oocytes. Recordings were done 24-48 hours after injection to allow time for protein expression. Currents were measured using two-microelectrode voltage clamp to verify ShakerB-IR ion channel expression. Oocytes were stored in Superbarths Oocyte media (88 mM NaCl, 1 mM KCl, 0.41 mM CaCl2, 0.33 mM Ca(NO3)2, 1 mM MgSO4, 2.4 mM NaHCO3, 10 mM HEPES, 1 mM pyruvate and 50 μg/ml gentamicin, titrated using NaOH to a pH of 7.4) at 17° Celsius (C.). Oocytes were also bathed in this media during RF recording.
(§1) Oocytes were positioned into a recording chamber consisting of an RF belt electrode surrounding the meridian of the cell and a ground electrode located in the oocyte media above an axial pole of the cell. Two glass micropipettes (1-3 MΩ access resistance) filled with 3M KCL were carefully guided into the oocyte using an upright microscope (Zeiss AxioTech). One micropipette was attached to a voltage-measuring headstage (HS-2Ax1 LU, Molecular Devices, Sunnyvale, Calif.) and the second micropipette was attached to a current-injecting headstage (HS-2Ax10MGU, Molecular Devices, Sunnyvale, Calif.). […]

[2] = test system: ShakerB-IR K^+ ion channel; details: extracellular application; stated as known; cited from earlier work
[3] = test system: ShakerB-IR K^+ ion channel; test: RF (500 kHz) impedance interrogation of ShakerB-IR expressing Xenopus oocytes under voltage clamp; type: cell-based; details: ~120 μM Cu^2+, 500 kHz RF signal, FIG. 10
Method: Complementary deoxyribonucleic acid (cDNA) for the Shaker ion-channel variant ShakerB-IR (inactivation removed) was transformed in E. coli and linearized using the restriction enzyme, Kpn-1. cRNA was transcribed from linearized DNA, and 32 nL/cell of the transcribed RNA was injected into Xenopus oocytes. Recordings were done 24-48 hours after injection to allow time for protein expression. Currents were measured using two-microelectrode voltage clamp to verify ShakerB-IR ion channel expression. […]
(§2) RF voltage measurements were sampled through a head-stage voltage-follower operational amplifier (OPA356, Texas Instruments, Dallas, Tex.). The RF signal was high pass filtered (100 kHz, 48 DB/oct Bessel HPF; SIM965, Stanford Research Systems, Sunnyvale, Calif.) and detected by a lock-in amplification (0 integration time, SR844, Stanford Research Systems, Sunnyvale, Calif.). The quadrature outputs on the lock-in amplifier detected changes on the order of 10 microvolts, and time delays caused by the lock-in amplifier and HPF were accounted for prior to data analysis. TEVC data (command voltage, sensed voltage, measured current) and RF data (quadrature outputs from the lock-in amplifier) were sampled every 20 μs using a 16 bit A-D converter (ITC-18, HEKA Inst. Bellmore, N.Y.). […]

[4] = test system: control oocytes (endogenous protein response); test: RF (500 kHz) impedance interrogation of control Xenopus oocytes under voltage clamp; type: cell-based; details: ~120 μM Cu^2+, 500 kHz RF signal, FIG. 10
From the text: as §1, §2

[Cu+2] [Cu^2+]
effect on ShakerB-IR K^+ current [1]: blocked the ShakerB-IR K^+ current | known effect of extracellular Cu^2+ on K^+ conductance [2]: shift the K^+ conductance to more depolarized levels | effect on charge displacement within the RF electric field (voltage-dependent RF impedance) [3]: increased charge displacement within the RF electric field | effect on charge displacement within the RF electric field in control cells [4]: not observed to the same extent in control cells
